Here are results for eight compounds from ChEMBL document CHEMBL1201862, “PubChem BioAssay data set” (2004).

SMILES strings stand for the structures.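 Method: 48-hour compound exposure of cells in 96-well plates, five concentrations, linear interpolation of endpoints. GI50 marks 50% less growth.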 Calls of active or inactive are those of the source. No stated cut-off is given here; in the data, active = GI50 up to about 1.1 µM and inactive = higher.

Among the test systems are COLO 205; RPMI-8226; LOX IMVI; NCI-H460; HCT-15; EKVX; MDA-MB-231; MCF7; KM12; ACHN; HCC 2998; SW-620; OVCAR-5; SN12C; DU-145; SF-268; HOP-92; SF-539; UO-31.
Holding throughout (test): growth of human tumour cells (NCI), 48 h

Regarding `CC1(C)C(c2ccccc2)=[N+]([O-])C(C)(C)N1O`, the GI50 is > 10 µM (inactive) in the test with COLO 205; > 10 µM (inactive) in the test with RPMI-8226; > 10 µM (inactive) in the test on LOX IMVI; > 10 µM (inactive) with NCI-H460; above 10 µM in the test on HCT-15; > 10 µM (inactive) in the test on EKVX. Also, the GI50 with MDA-MB-231, with MCF7, with KM12, in the test on ACHN, in the test with HCC 2998 and in the test on SW-620 was > 10 µM (inactive) in each case. The GI50 in the test on OVCAR-5, in the test with SN12C, with DU-145, in the test with SF-268, with HOP-92 and in the test on SF-539 was > 10 µM (inactive) each time.
With `COC(=O)c1cccc(OC)c1C#Cc1c(OC)cccc1OC`, the GI50 with COLO 205 is > 100 µM (inactive); in the test on RPMI-8226, > 100 µM (inactive); with LOX IMVI, > 100 µM (inactive); in the test with NCI-H460, > 100 µM (inactive); in the test with HCT-15, above 100 µM; with EKVX it was > 100 µM (inactive). In addition, the GI50 was > 100 µM (inactive) in the test on MDA-MB-231; > 100 µM (inactive) in the test on MCF7; 69.7 µM (inactive) in the test on KM12; > 100 µM (inactive) in the test with ACHN; > 100 µM (inactive) with HCC 2998; > 100 µM (inactive) with SW-620. Also, the GI50 in the test on OVCAR-5, in the test with SN12C, in the test with DU-145, in the test on SF-268, with HOP-92 and in the test on UO-31 was > 100 µM (inactive) each time. In addition, the GI50 with SF-539 was > 100 µM (inactive).
Consider `COc1ccc2cc(NC(=O)N/N=C\c3ccc(Cl)cc3)ccc2c1`, for which the GI50 in the test with COLO 205 was > 100 µM (inactive); in the test on RPMI-8226, > 100 µM (inactive); in the test with LOX IMVI, > 100 µM (inactive); in the test on NCI-H460, 50 µM (inactive); in the test with HCT-15, above 100 µM; with EKVX, > 100 µM (inactive). Besides, the GI50 was 27.5 µM (inactive) in the test with MDA-MB-231; > 100 µM (inactive) in the test with MCF7; > 100 µM (inactive) with KM12; > 100 µM (inactive) in the test on ACHN; > 100 µM (inactive) in the test with HCC 2998; > 100 µM (inactive) with SW-620. Besides, the GI50 in the test on OVCAR-5 is > 100 µM (inactive); in the test on SN12C, > 100 µM (inactive); in the test with DU-145 it was > 100 µM (inactive); in the test on SF-268, 44.1 µM (inactive); with HOP-92, > 100 µM (inactive); in the test on UO-31 it was > 100 µM (inactive). In the test on SF-539, the GI50 was 43.1 µM (inactive).
Take `COc1c(C)c(OCC=C(C)C)cc(CO)c1CO`: the GI50 was 58.6 µM (inactive) in the test with COLO 205; 20.4 µM (inactive) with RPMI-8226; 28.9 µM (inactive) with LOX IMVI; 38.7 µM (inactive) with NCI-H460; 41.5 µM in the test on HCT-15; 77.8 µM (inactive) in the test with EKVX. In addition, the GI50 in the test on MDA-MB-231 was 69.8 µM (inactive); in the test with MCF7, 38.5 µM (inactive); in the test on KM12 it was 63 µM (inactive); in the test on ACHN, 67.8 µM (inactive); with HCC 2998, 82.6 µM (inactive); in the test with SW-620 it was 74.5 µM (inactive). Besides, the GI50 with OVCAR-5 is > 100 µM (inactive); in the test with SN12C, 88.3 µM (inactive); in the test with DU-145, 92 µM (inactive); with SF-268, > 100 µM (inactive); in the test on HOP-92, > 100 µM (inactive); with SF-539, 53.7 µM (inactive).
As to `CN(CCCNC(=O)c1nn(-c2ccc(Cl)cc2Cl)c2c1ccc1ccccc12)CCCNC(=O)c1nn(-c2ccc(Cl)cc2Cl)c2c1ccc1ccccc12`, the GI50 with COLO 205 is 1.91 µM (inactive); in the test with RPMI-8226, 1.87 µM (inactive); in the test on LOX IMVI it was 1.69 µM (inactive); in the test with NCI-H460, 1.78 µM (inactive); in the test on HCT-15, 1.7 µM; in the test on EKVX, 1.69 µM (inactive). In addition, the GI50 is 1.75 µM (inactive) with MDA-MB-231; 1.56 µM (inactive) in the test with MCF7; 1.77 µM (inactive) in the test on KM12; 1.66 µM (inactive) with ACHN; 1.53 µM (inactive) in the test on HCC 2998; 2.26 µM (inactive) in the test on SW-620. In addition, the GI50 in the test with OVCAR-5 is 1.89 µM (inactive); in the test with SN12C, 1.65 µM (inactive); in the test with DU-145, 1.77 µM (inactive); with SF-268, 1.61 µM (inactive); in the test on HOP-92 it was 1.84 µM (inactive); in the test on SF-539 it was 1.76 µM (inactive).
Turning to `CCOC(=O)C(NC(=O)c1ccccc1)(N1CCN(c2cc3c(cc2F)c(=O)c(C(=O)O)cn3CC)CC1)C(F)(F)F` (stereo not drawn), the GI50 is 17.1 µM (inactive) in the test with COLO 205; 25.2 µM (inactive) in the test with RPMI-8226; 15.6 µM (inactive) in the test with LOX IMVI; 32.1 µM (inactive) with NCI-H460; 24.4 µM in the test with HCT-15; 17.1 µM (inactive) in the test on EKVX. Further, the GI50 with MDA-MB-231 is 23.6 µM (inactive); with MCF7, 26.6 µM (inactive); with KM12, 25.9 µM (inactive); with ACHN, 33.1 µM (inactive); in the test with HCC 2998, 52.2 µM (inactive); with SW-620, 47.6 µM (inactive). Besides, the GI50 in the test with OVCAR-5 is 21.1 µM (inactive); with SN12C, 32.9 µM (inactive); in the test on DU-145, 59.3 µM (inactive); in the test with SF-268, 40.9 µM (inactive); in the test with HOP-92 it was 28.8 µM (inactive); in the test on UO-31, 31.3 µM (inactive). In addition, the GI50 in the test on SF-539 is 26.5 µM (inactive).
With `CCOC(=O)Cc1ccc(Nc2nc3cc(F)c(F)cc3nc2C(=O)OCC)cc1`, the GI50 in the test with COLO 205 is 37.2 µM (inactive); in the test on RPMI-8226, 39.1 µM (inactive); with LOX IMVI, 28.1 µM (inactive); with NCI-H460 it was 69.5 µM (inactive); with HCT-15, 21.8 µM; in the test on EKVX, 22.8 µM (inactive). In addition, the GI50 in the test on MDA-MB-231 is 2.34 µM (inactive); in the test with MCF7 it was 37.6 µM (inactive); with KM12, > 100 µM (inactive); in the test on ACHN, 18.4 µM (inactive); in the test with HCC 2998, 25.6 µM (inactive); in the test with SW-620 it was 43.7 µM (inactive). The GI50 is > 100 µM (inactive) in the test with OVCAR-5; 74.5 µM (inactive) with SN12C; 25.9 µM (inactive) with DU-145; 64.9 µM (inactive) in the test on SF-268; 13.4 µM (inactive) in the test with HOP-92; 1.52 µM (inactive) in the test with UO-31. In addition, the GI50 in the test on SF-539 was > 100 µM (inactive).
Turning to `COc1cc2c(cc1OC)C(=O)/C(=C/c1ccc([N+](=O)[O-])cc1)CC2`, the GI50 with COLO 205 was > 10 µM (inactive); in the test on RPMI-8226 it was > 10 µM (inactive); in the test on LOX IMVI, > 10 µM (inactive); in the test on NCI-H460, > 10 µM (inactive); with HCT-15, above 10 µM; in the test on EKVX, > 10 µM (inactive). In addition, the GI50 with MDA-MB-231, in the test with MCF7, in the test on KM12, with ACHN, with HCC 2998 and with SW-620 was > 10 µM (inactive) in each case. Also, the GI50 in the test on OVCAR-5, in the test with SN12C, with DU-145, in the test with SF-268, in the test with HOP-92 and with SF-539 was > 10 µM (inactive) each time.
